In US20100035755A1, “METHOD OF CONTROLLING WEEDS IN A TURF GRASS BY USING SULFONYLUREA COMPOUNDS” (Moghu Research Center Ltd., priority 2008, published 2010):

How the values were obtained:
[1] = tested on: every kind of turf grasses tested; assay: Turf grass selectivity, text summary over all turf grasses; assay type: in vivo
Text: (§1) Turf mats of Zoysia grass, bentgrass, Kentucky bluegrass, or perennial rye grass known as cool season turfgrass or western grass were purchased and cut into a piece having 10 cm×20 cm size. Then, each piece was transplanted in a rectangular plastic pot (surface area of 300 cm^2) in which sandy loam and mixed top soil (Boo-Nong Top Soil No. 3, for horticultural use) are filled in 1:1 ratio. After the transplantation, the grasses were cut once a week to maintain the blade height at 0.5-1.0 cm and cultivated for one month in a green house of which temperature was kept at 25˜30° C. for daytime and 15˜25° C. for nighttime, respectively. Then, the ‘test chemical’ of the above Examples 1 and 2 or ‘control chemical’ was applied thereto in an amount of 400, 200, 100, 50, 25, 12, 6, 3 g ai/ha. As a “control chemical”, pyrazolsulfuron ethyl wettable agent (manufactured by Dongbu Fine Chemicals; herein after, referred to as ‘control chemical No. 1’) and flazasulfuron (manufactured by Dongbu HiTek; herein after, referred to as ‘control chemical No. 2’), both sulfonylurea herbicides for a turf grass, were used. Application was carried out by using a track sprayer (R&D Sprayer, USA) equipped with Teejet 8002 nozzle (Spraying Systems Co., USA), and the application amount was adjusted to 2,000 L/ha, which is a typical application amount for a golf course in Korea. Application solution was prepared by diluting the “test chemical” or the “control chemical” with tap water. […] The test was repeated three times in a random arrangement and the results are given in average value of each test (see Table 2 below).

[2] = tested on: Dandelion; assay: Weed spectrum, greenhouse pot test; assay type: in vivo; settings: two weeks after application
[3] = tested on: Kentucky bluegrass; assay: Actual field condition test of Example 1 (golf course); assay type: in vivo, Poa pratensis; settings: twenty days after application
Procedure: (§2) The test chemical of the Example 1 was applied to a turf grass field, in which Digitaria sanguinalis as a representative summer-time poaceae weed and Kyllinga brevifolia as a representative hard-to-control perennial cyperaceae weed are thriving predominantly, to evaluate weed control effect of the compound. The experiment was carried out from May to July, 2008 in the Dae-duk Research Park golf course (Doryong-dong, Yusong-gu, Daejon, South Korea). At the time of the chemical application, Digitaria sanguinalis was at about 4-leaf stage and Kyllinga brevifolia was at growth period.

[4] = tested on: Digitaria sanguinalis; assay: as above; assay type: in vivo; settings: for efficacy in actual field condition: Digitaria sanguinalis (about 4-leaf stage), twenty days after application
Procedure: as §2

[5] = tested on: Zoysia japonica; assay: as above; assay type: in vivo; settings: twenty days after application
Procedure: as §2

[6] = tested on: Kyllinga brevifolia; assay: as above; assay type: in vivo; settings: for efficacy in actual field condition: Kyllinga brevifolia (growth period), twenty days after application
Procedure: as §2

[7] = tested on: Bentgrass; assay: Turf grass selectivity, greenhouse pot test; assay type: in vivo, Agrostris palustris
Text: as §1

[8] = tested on: Perennial rye grass; assay: Turf grass selectivity, greenhouse pot test; assay type: in vivo
Procedure, shortened: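 Turf mats transplanted to pots of sandy loam/top soil (1:1), mown weekly to 0.5-1.0 cm and grown one month in greenhouse (25˜30° C. day, 15˜25° C. night). Test chemicals sprayed at 400, 200, 100, 50, 25, 12, 6, 3 g ai/ha in 2,000 L/ha tap-water dilution; three replicates, randomised, averaged.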

[9] = tested on: cool season turfgrass; assay: Turf grass selectivity, summary for cool season turfgrass; assay type: in vivo; settings: 25 g ai/ha or more
Text: Turf mats of Zoysia grass, bentgrass, Kentucky bluegrass, or perennial rye grass known as cool season turfgrass or western grass were purchased and cut into a piece having 10 cm×20 cm size. Then, each piece was transplanted in a rectangular plastic pot (surface area of 300 cm^2) in which sandy loam and mixed top soil (Boo-Nong Top Soil No. 3, for horticultural use) are filled in 1:1 ratio. After the transplantation, the grasses were cut once a week to maintain the blade height at 0.5-1.0 cm and cultivated for one month in a green house of which temperature was kept at 25˜30° C. for daytime and 15˜25° C. for nighttime, respectively. Then, the ‘test chemical’ of the above Examples 1 and 2 or ‘control chemical’ was applied thereto in an amount of 400, 200, 100, 50, 25, 12, 6, 3 g ai/ha. As a “control chemical”, pyrazolsulfuron ethyl wettable agent (manufactured by Dongbu Fine Chemicals; herein after, referred to as ‘control chemical No. 1’) and flazasulfuron (manufactured by Dongbu HiTek; herein after, referred to as ‘control chemical No. 2’), both sulfonylurea herbicides for a turf grass, were used. Application was carried out by using a track sprayer (R&D Sprayer, USA) equipped with Teejet 8002 nozzle (Spraying Systems Co., USA), and the application amount was adjusted to 2,000 L/ha, which is a typical application amount for a golf course in Korea. […]

[10] = tested on: Viola arvensis; assay: Actual field condition test of Example 2 (turf grass field); assay type: in vivo; settings: 50 g ai/ha
Procedure: The test chemical of the Example 2 was applied to a turf grass field, in which Viola arvensis as a representative hard-to-control perennial weed is thriving predominantly, to evaluate a weed control effect of the compound. The experiment was carried out from May to June, 2007 in the turf grass field within Korea Research Institute of Bioscience and Biotechnology (52, Ueun-dong, Yusong-gu, Daejon, South Korea). Fourteen days after the chemical application, the turf grass was cut once.

Cc1cc(C)nc(NC(=O)NS(=O)(=O)c2ccccc2C(O)C(C)F)n1 (stereo not drawn) [Example 1]
phytotoxicity to a turf grass ([1]; 100 g ai/ha): no phytotoxicity at all | phytotoxicity to a turf grass ([1]; 400 g ai/ha): only minor phytotoxicity | phytotoxicity to turf grasses ([1]; 400 or 200 g ai/ha): only minor phytotoxicity | safety to turf grasses ([1]; every kind of turf grasses tested, 100 g ai/ha or less): excellent safety | efficacy (0-100 scale) ([2]; Post-emergence, 12 g ai/ha): 90 | efficacy (0-100 scale) ([2]; Post-emergence, 25 g ai/ha): 90 | efficacy (0-100 scale) ([2]; Post-emergence, 50 g ai/ha): 100 | efficacy (0-100 scale) ([2]; Post-emergence, 100 g ai/ha): 100 | efficacy (0-100 scale) ([2]; Pre-emergence, 12 g ai/ha): 90 | efficacy (0-100 scale) ([2]; Pre-emergence, 25 g ai/ha): 90 | efficacy (0-100 scale) ([2]; Pre-emergence, 50 g ai/ha): 100 | efficacy (0-100 scale) ([2]; Pre-emergence, 100 g ai/ha): 100 | phytotoxicity in actual field condition ([3]; 50 g ai/ha): 0 | phytotoxicity in actual field condition ([3]; 100 g ai/ha): 0 | efficacy in actual field condition ([4]; 50 g ai/ha): 80 | efficacy in actual field condition ([4]; 100 g ai/ha): 90 | efficacy in actual field condition ([4]; 200 g ai/ha): 100 | weed controlled in actual field ([4]; Digitaria sanguinalis, 50 g ai/ha or more): 80% | phytotoxicity in actual field condition ([5]; 50 g ai/ha): 0 | phytotoxicity in actual field condition ([5]; 100 g ai/ha): 0 | efficacy in actual field condition ([6]; 50 g ai/ha): 100 | efficacy in actual field condition ([6]; 100 g ai/ha): 100 | efficacy in actual field condition ([6]; 200 g ai/ha): 100 | weed controlled in actual field ([6]; Kyllinga brevifolia, 50 g ai/ha or more): 100% | phytotoxicity (visual assessment 0-10) ([7]; 3 g ai/ha, 2 weeks): 0 | phytotoxicity (visual assessment 0-10) ([7]; 3 g ai/ha, 4 weeks): 0 | phytotoxicity (visual assessment 0-10) ([7]; 6 g ai/ha, 2 weeks): 0 | phytotoxicity (visual assessment 0-10) ([7]; 6 g ai/ha, 4 weeks): 0 | phytotoxicity (visual assessment 0-10) ([7]; 12 g ai/ha, 2 weeks): 0 | phytotoxicity (visual assessment 0-10) ([7]; 12 g ai/ha, 4 weeks): 0 | phytotoxicity (visual assessment 0-10) ([7]; 25 g ai/ha, 2 weeks): 0 | phytotoxicity (visual assessment 0-10) ([7]; 25 g ai/ha, 4 weeks): 0 | phytotoxicity (visual assessment 0-10) ([7]; 50 g ai/ha, 2 weeks): 0 | phytotoxicity (visual assessment 0-10) ([7]; 50 g ai/ha, 4 weeks): 0 | phytotoxicity (visual assessment 0-10) ([7]; 100 g ai/ha, 2 weeks): 1 | phytotoxicity (visual assessment 0-10) ([7]; 100 g ai/ha, 4 weeks): 0 | phytotoxicity (visual assessment 0-10) ([7]; 200 g ai/ha, 2 weeks): 2 | phytotoxicity (visual assessment 0-10) ([7]; 200 g ai/ha, 4 weeks): 1 | phytotoxicity (visual assessment 0-10) ([7]; 400 g ai/ha, 2 weeks): 3 | phytotoxicity (visual assessment 0-10) ([7]; 400 g ai/ha, 4 weeks): 2 | phytotoxicity (visual assessment 0-10) ([8]; 3 g ai/ha, 2 weeks): 0 | phytotoxicity (visual assessment 0-10) ([8]; 3 g ai/ha, 4 weeks): 0 | phytotoxicity (visual assessment 0-10) ([8]; 6 g ai/ha, 2 weeks): 0 | phytotoxicity (visual assessment 0-10) ([8]; 6 g ai/ha, 4 weeks): 0 | phytotoxicity (visual assessment 0-10) ([8]; 12 g ai/ha, 2 weeks): 0 | phytotoxicity (visual assessment 0-10) ([8]; 12 g ai/ha, 4 weeks): 0 | phytotoxicity (visual assessment 0-10) ([8]; 25 g ai/ha, 2 weeks): 0 | phytotoxicity (visual assessment 0-10) ([8]; 25 g ai/ha, 4 weeks): 0 | phytotoxicity (visual assessment 0-10) ([8]; 50 g ai/ha, 2 weeks): 0 | phytotoxicity (visual assessment 0-10) ([8]; 50 g ai/ha, 4 weeks): 0 | phytotoxicity (visual assessment 0-10) ([8]; 100 g ai/ha, 2 weeks): 0 | phytotoxicity (visual assessment 0-10) ([8]; 100 g ai/ha, 4 weeks): 0 | phytotoxicity (visual assessment 0-10) ([8]; 200 g ai/ha, 2 weeks): 0 | phytotoxicity (visual assessment 0-10) ([8]; 200 g ai/ha, 4 weeks): 0 | phytotoxicity (visual assessment 0-10) ([8]; 400 g ai/ha, 2 weeks): 1 | phytotoxicity (visual assessment 0-10) ([8]; 400 g ai/ha, 4 weeks): 0

COc1nc(C)nc(NC(=O)NS(=O)(=O)c2cscc2C2(CF)OCCO2)n1 [Example 2, 3-(2-fluoromethyl-1,3-dioxalan-2-yl)-N-[(4-methoxy-6-methyltriazin-2-yl)aminocarbonyl]4-thiophene sulfonamide]
efficacy (0-100 scale) ([2]; Post-emergence, 12 g ai/ha): 90 | efficacy (0-100 scale) ([2]; Post-emergence, 25 g ai/ha): 90 | efficacy (0-100 scale) ([2]; Post-emergence, 50 g ai/ha): 100 | efficacy (0-100 scale) ([2]; Post-emergence, 100 g ai/ha): 100 | efficacy (0-100 scale) ([2]; Pre-emergence, 12 g ai/ha): 90 | efficacy (0-100 scale) ([2]; Pre-emergence, 25 g ai/ha): 90 | efficacy (0-100 scale) ([2]; Pre-emergence, 50 g ai/ha): 100 | efficacy (0-100 scale) ([2]; Pre-emergence, 100 g ai/ha): 100 | phytotoxicity (visual assessment 0-10) ([7]; 3 g ai/ha, 2 weeks): 3 | phytotoxicity (visual assessment 0-10) ([7]; 3 g ai/ha, 4 weeks): 1 | phytotoxicity (visual assessment 0-10) ([7]; 6 g ai/ha, 2 weeks): 5 | phytotoxicity (visual assessment 0-10) ([7]; 6 g ai/ha, 4 weeks): 3 | phytotoxicity (visual assessment 0-10) ([7]; 12 g ai/ha, 2 weeks): 7 | phytotoxicity (visual assessment 0-10) ([7]; 12 g ai/ha, 4 weeks): 5 | phytotoxicity (visual assessment 0-10) ([7]; 25 g ai/ha, 2 weeks): 10 | phytotoxicity (visual assessment 0-10) ([7]; 25 g ai/ha, 4 weeks): 10 | phytotoxicity (visual assessment 0-10) ([7]; 50 g ai/ha, 2 weeks): 10 | phytotoxicity (visual assessment 0-10) ([7]; 50 g ai/ha, 4 weeks): 10 | phytotoxicity (visual assessment 0-10) ([7]; 100 g ai/ha, 2 weeks): 10 | phytotoxicity (visual assessment 0-10) ([7]; 100 g ai/ha, 4 weeks): 10 | phytotoxicity (visual assessment 0-10) ([7]; 200 g ai/ha, 2 weeks): 10 | phytotoxicity (visual assessment 0-10) ([7]; 200 g ai/ha, 4 weeks): 10 | phytotoxicity (visual assessment 0-10) ([7]; 400 g ai/ha, 2 weeks): 10 | phytotoxicity (visual assessment 0-10) ([7]; 400 g ai/ha, 4 weeks): 10 | phytotoxicity to cool season turfgrass [9]: completely withered | phytotoxicity (visual assessment 0-10) ([8]; 3 g ai/ha, 2 weeks): 3 | phytotoxicity (visual assessment 0-10) ([8]; 3 g ai/ha, 4 weeks): 1 | phytotoxicity (visual assessment 0-10) ([8]; 6 g ai/ha, 2 weeks): 5 | phytotoxicity (visual assessment 0-10) ([8]; 6 g ai/ha, 4 weeks): 3 | phytotoxicity (visual assessment 0-10) ([8]; 12 g ai/ha, 2 weeks): 7 | phytotoxicity (visual assessment 0-10) ([8]; 12 g ai/ha, 4 weeks): 5 | phytotoxicity (visual assessment 0-10) ([8]; 25 g ai/ha, 2 weeks): 10 | phytotoxicity (visual assessment 0-10) ([8]; 25 g ai/ha, 4 weeks): 10 | phytotoxicity (visual assessment 0-10) ([8]; 50 g ai/ha, 2 weeks): 10 | phytotoxicity (visual assessment 0-10) ([8]; 50 g ai/ha, 4 weeks): 10 | phytotoxicity (visual assessment 0-10) ([8]; 100 g ai/ha, 2 weeks): 10 | phytotoxicity (visual assessment 0-10) ([8]; 100 g ai/ha, 4 weeks): 10 | phytotoxicity (visual assessment 0-10) ([8]; 200 g ai/ha, 2 weeks): 10 | phytotoxicity (visual assessment 0-10) ([8]; 200 g ai/ha, 4 weeks): 10 | phytotoxicity (visual assessment 0-10) ([8]; 400 g ai/ha, 2 weeks): 10 | phytotoxicity (visual assessment 0-10) ([8]; 400 g ai/ha, 4 weeks): 10 | Effect on Viola arvensis ([10]; After 7 days): 20 | Effect on Viola arvensis ([10]; After 14 days): 50
